Results published in the supplement of paper PMC10784567.
± gives the standard deviation of the averaged measurements.

What follows are test systems tested with C=C1C[C@H]2C=Nc3cc(OCCCCCOc4cc5c(cc4OC)C(=O)N4CC(=C)C[C@H]4C=N5)c(OC)cc3C(=O)N2C1 [SG2057] (assay: absolute IC50 (cell viability, CellTiter-Glo); higher = less potent). Settings: treatment time: 3 days.
Description: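 Large cancer cell line panel screens in 384-well plates. Cells were treated for 3 days with a 9-point dose titration of the free PBD dimer SG2057; viability was read with CellTiter-Glo. Absolute IC50 came from a four-parameter Hill fit normalised to the median of vehicle (DMSO) wells. Several independent screens (projects) per cell line are averaged; values in µM, lowest-dose floor about 1.524e-5 µM.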

Test System	absolute IC50 [nM]
HL-60	5.24
KALS-1	0.336
CT26.WT	5.3
FaDu	0.35
VMRC-RCW	3.72
NB-4	0.29
KATO III	5.09
SU.86.86	0.733 ± 0.48
COR-L26	0.211 ± 0.31
SK-N-FI	8.79 ± 11
Reh	0.757
OCI-M2	0.275 ± 0.0079
HNT-34	0.076 ± 0.067
SNU-668	0.573
HCC1954	1.35 ± 3.1
CFPAC-1	0.526 ± 0.55
NCI-H2444	5.49
MS751	0.683
NCI-H1869	2.35
AE17	0.259
AB22	4.95
EMT6 Luciferase	0.606
Hs 683	0.626 ± 1
ONS-76	0.487
NCI-H2126	3.94

Test System	absolute IC50 [nM]
BEN	43.1
HEC-1-A	3.86
MKN-74	2.17
HCC2688	0.282
786-O	1.24 ± 1.8
KYSE-510	0.0686
CHL-1	1.39 ± 1.1
4498-16820 Mel-BR1	0.55
HEC-265	0.555
OE19	2.23
NCI-H1930	0.0346
1624-17147 (Tumor A)	1.27
KYSE-30	0.368
NTERA-2	< 0.0152
HEp-2	0.322
NCI-H2122	2.98 ± 1.3
Calu-6	6.78
CHP-212	0.105
MOLM-16	0.27 ± 0.29
COLO 205	1.52 ± 0.48
MCF-7	2.5 ± 1.7
UKE-1	0.0189 ± 0.0056
NCI-H1975 (MB)	0.206
HEC-50B	0.713
OVCA 420	2.24 ± 2.3

Test System	absolute IC50 [nM]
G142	0.556 ± 1
KPP14449	1.53
COLO 680N	0.602
SKG-IIIb	1.79
B16-F10	1.01
A172	0.554
SK-UT-1B	< 0.0152
HCC2450	5.43
COLO 684	5
KLN 205	2.12
RKO-E6	1.32 ± 2.1
COLO 679	0.435 ± 0.34
KNS-81	0.189
U-87 MG	3.32
UCSD-242l	1.29 ± 0.84
HCC1263	5.65 ± 3.7
SW 900	3.18
Pfeiffer	1.21 ± 2
LTPA	1.46
QGP-1	5.47 ± 0.39
CaR-1	0.535 ± 0.21
HUH-7	1.82
ML-2	0.0572 ± 0.013
OCI-LY-10	< 0.0152
COLO 783	3.44

Test System	absolute IC50 [nM]
Panc 08.13	2.7
TRAMP-C1	0.345
OCUM-1	0.529 ± 0.32
CCF-STTG1	2.87
NCI-H2595	2.2 ± 1.9
Hs 852.T	0.582 ± 0.063
Daudi	0.155 ± 0.24
Hep 3B2.1-7	3.83 ± 2.6
LN-18	2.2 ± 1.4
HCC60 (NCI-H23)	0.268
AN3 CA	1.45
ATRFLOX	0.211 ± 0.41
MES-SA	0.135 ± 0.14
HCC1187	0.601 ± 0.69
MC-IXC	0.0163
G-402	0.349 ± 0.14
Toledo	0.279 ± 0.28
1624-17147 (Tumor B)	1.55
PAN 02	1.39
COR-L88	5.79
SUM 52PE	2.62 ± 1.5
MDA-MB-157	1.86 ± 1.7
SW 1463	7.83 ± 8.2
CX-1	1.82 ± 2
MCF 10A CDH1 -/- (Sigma)	2.53

Test System	absolute IC50 [nM]
HCC1171	1.01 ± 0.16
HCC1319	12.8
OPM-2	1.63 ± 1.2
SIMA	0.863
BHY	0.183
KR7110	1.36
TRAMP-C2	0.154
RVH-421	0.569
C32TG	0.2
Panc 05.04	1.68 ± 0.4
Caki-2	10.2 ± 19
A-673	0.0661
PMF-ko14	2.86 ± 5.1
SiHa	1.56
COLO 320HSR	1.9
JVM-2	0.374 ± 0.48
NCI-H2009	1.1 ± 0.98
KPL-1	2.48 ± 1.5
SK-BR-3	0.69 ± 0.71
KMRC-20	3.45
KMRC-1	1.26
COLO 685	1.32
LNCaP/Ner	0.0717
